Results as given in PubChem BioAssay (NCI).
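Tested at 5 concentrations; 48 h exposure; 96-well plates; endpoints linearly interpolated, else capped at highest concentration. TGI marks complete inhibition of growth.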

How the values were obtained:
Test in all cases: growth of human tumour cells (NCI), 48 h
[1] = test system: SF-539 CNS
[2] = test system: SK-MEL-2 melanoma
[3] = test system: UACC-257 melanoma
[4] = test system: U251 CNS
[5] = test system: SN12C renal
[6] = test system: SF-295 CNS
[7] = test system: LXFL 529 NSCLC
[8] = test system: HT29 colon
[9] = test system: MOLT-4 leukemia
[10] = test system: OVCAR-5 ovarian
[11] = test system: OVCAR-3 ovarian
[12] = test system: CCRF-CEM leukemia
[13] = test system: SNB-75 CNS
[14] = test system: HOP-92 NSCLC
[15] = test system: RXF 393 renal
[16] = test system: UO-31 renal
[17] = test system: XF 498 CNS
[18] = test system: M19-MEL melanoma
[19] = test system: HOP-18 NSCLC
[20] = test system: KM12 colon
[21] = test system: HCT-116 colon
[22] = test system: K-562 leukemia
[23] = test system: A498 renal
[24] = test system: SK-OV-3 ovarian
[25] = test system: SNB-19 CNS
[26] = test system: NCI-H226 lung
[27] = test system: HOP-62 NSCLC
[28] = test system: LOX IMVI melanoma
[29] = test system: HCT-15 colon
[30] = test system: IGROV1 ovarian
[31] = test system: SK-MEL-28 melanoma
[32] = test system: DLD-1 colon
[33] = test system: NCI-H460 lung
[34] = test system: COLO 205 colon
[35] = test system: ACHN renal
[36] = test system: SR leukemia
[37] = test system: M14 melanoma
[38] = test system: NCI-H522 lung
[39] = test system: KM20L2 colon
[40] = test system: EKVX NSCLC
[41] = test system: OVCAR-8 ovarian
[42] = test system: SK-MEL-5 melanoma
[43] = test system: HL-60(TB) leukemia
[44] = test system: TK-10 renal
[45] = test system: DMS 114 small cell lung
[46] = test system: NCI-H23 lung
[47] = test system: UACC-62 melanoma
[48] = test system: RPMI-8226 leukemia
[49] = test system: A549 NSCLC
[50] = test system: 786-0 renal
[51] = test system: SW-620 colon
[52] = test system: MALME-3M melanoma
[53] = test system: SF-268 CNS
[54] = test system: DMS 273 small cell lung
[55] = test system: SNB-78 CNS
[56] = test system: HCC-2998 colon

Work on Cc1[nH]c2c(C)cccc2c1C1Cc2ccccc2N1 (stereo not given) yielded a TGI [1] of 33.7 µM, a TGI [2] of 54.3 µM and a TGI [3] of 42.7 µM. It also gave a TGI [4] of 41.4 µM, a TGI [5] of 41 µM and a TGI [6] of 41 µM. The TGI [7] was 36.4 µM, the TGI [8] was 35.3 µM and the TGI [9] was 48.3 µM. It also gave a TGI [10] of 41.3 µM, a TGI [11] of 33 µM and a TGI [12] of 74.1 µM. The TGI [13] was greater than 100 µM, the TGI [14] was 0.0966 µM and the TGI [15] was 23.1 µM. It also gave a TGI [16] of 65.7 µM, a TGI [17] of 38.4 µM and a TGI [18] of 46.1 µM. The TGI [19] was 35.2 µM, the TGI [20] was 32.4 µM and the TGI [21] was 30.9 µM. For the same molecule, the TGI [22] was 67 µM, the TGI [23] was 87.7 µM and the TGI [24] was greater than 100 µM. It also gave a TGI [25] of 69.8 µM, a TGI [26] of 57.1 µM and a TGI [27] of 32.3 µM. It also gave a TGI [28] of 31 µM, a TGI [29] of 49.2 µM and a TGI [30] of 36.7 µM. The TGI [31] was 36.7 µM, the TGI [32] was 79.8 µM and the TGI [33] was 51.7 µM. It also gave a TGI [34] of 32.3 µM, a TGI [35] of 74.9 µM and a TGI [36] of 66.7 µM. For the same molecule, the TGI [37] was 29.6 µM, the TGI [38] was 41.2 µM and the TGI [39] was 31.4 µM. It also gave a TGI [40] of 35.9 µM, a TGI [41] of 40.2 µM and a TGI [42] of 33.4 µM. For the same molecule, the TGI [43] was 43 µM, the TGI [44] was 62.2 µM and the TGI [45] was 45.2 µM. It also gave a TGI [46] of 39.8 µM, a TGI [47] of 32.8 µM and a TGI [48] of 74.6 µM. It also gave a TGI [49] of 62.2 µM, a TGI [50] of 46.9 µM and a TGI [51] of 56.4 µM. The TGI [52] was 41.7 µM and the TGI [53] was 48.2 µM.

Work on CC1CC2=C(C(=O)O1)C(c1ccccc1)Nc1ccccc1N2 (stereo not given) yielded a TGI [1] greater than 100 µM, a TGI [54] greater than 100 µM and a TGI [2] greater than 100 µM. It also gave a TGI [3] greater than 100 µM, a TGI [4] greater than 100 µM and a TGI [5] greater than 100 µM. It also gave a TGI [55] greater than 100 µM, a TGI [7] greater than 100 µM and a TGI [8] greater than 100 µM. For the same molecule, the TGI [9] was greater than 100 µM, the TGI [10] was greater than 100 µM and the TGI [11] was greater than 100 µM. It also gave a TGI [12] greater than 100 µM, a TGI [13] greater than 100 µM and a TGI [15] greater than 100 µM. The TGI [16] was greater than 100 µM, the TGI [18] was greater than 100 µM and the TGI [19] was greater than 100 µM. The TGI [20] was greater than 100 µM, the TGI [21] was greater than 100 µM and the TGI [22] was greater than 100 µM. It also gave a TGI [23] greater than 100 µM, a TGI [24] greater than 100 µM and a TGI [25] greater than 100 µM. It also gave a TGI [26] greater than 100 µM, a TGI [27] greater than 100 µM and a TGI [28] greater than 100 µM. The TGI [29] was greater than 100 µM, the TGI [30] was greater than 100 µM and the TGI [31] was greater than 100 µM. For the same molecule, the TGI [32] was greater than 100 µM, the TGI [33] was greater than 100 µM and the TGI [34] was greater than 100 µM. It also gave a TGI [35] greater than 100 µM, a TGI [36] greater than 100 µM and a TGI [37] greater than 100 µM. It also gave a TGI [56] greater than 100 µM, a TGI [38] greater than 100 µM and a TGI [39] greater than 100 µM. The TGI [40] was greater than 100 µM, the TGI [41] was greater than 100 µM and the TGI [42] was greater than 100 µM. It also gave a TGI [43] greater than 100 µM, a TGI [44] greater than 100 µM and a TGI [45] greater than 100 µM. For the same molecule, the TGI [46] was greater than 100 µM, the TGI [47] was greater than 100 µM and the TGI [49] was greater than 100 µM. It also gave a TGI [50] greater than 100 µM, a TGI [51] greater than 100 µM and a TGI [52] greater than 100 µM. The TGI [53] was greater than 100 µM.
